Reference: US10351847B2, “Identification and display of peptide ligands” (OXFORD UNIVERSITY INNOVATION LIMITED, priority 2013, dated 2019)
“Also recorded” adds a separate entry of the source. Like-named read-outs stand apart in the source and are kept apart here. Ends that are not written are not given here. GS linker = not defined here

What was measured:
HIV-1 JRFL gp120 = assay: ELISA for binding between predicted peptides and gp120; conditions: compared to negative control HA2 (hemagglutinin-binding peptide)
HIV-1 BaL = assay: HIV-1 inhibition assay (intracellular p24 in CD4+ cells of PBMC); conditions: for inhibition of HIV-1 BaL infection: without streptavidin conjugation
[1] = system: HIV-1 (HIV BAL, IIIB, clade C)
purified gp120 = assay: Surface plasmon resonance (BIAcore) KD of peptides to gp120; type: binding, HIV-1
Method: Immobilisation of purified gp120 protein (1 mg/ml) and purified HLA-A2 heavy chain (reference control, 1 mg/ml) onto the surface of individual flow-cells (Fc1 and Fc2 respectively) of CM5 sensor chip (GE Healthcare) was performed under conditions of 20 μl/min flow rate and 25° C., with HBS-EP buffer (0.01 M HEPES pH 7.4, 0.15 M NaCl, 0.005% v/v Surfactant P20; GE Healthcare) as the running buffer. After initiating the system, 100 μl 0.05M solution of EDC [1-ethyl-3-(3-dimethylaminopropyl) carbodiimide]/NHS (N-Hydroxysuccinimide) at 1:1 ratio was injected to activate the dextran matrix of the sensor chip surface. After immobilisation, 150 μl of 1M ethanolamine hydrochloride was injected to deactivate the unreacted carboxylmethyl groups on the dextran matrix. Finally, 30 μl of Glycine pH2.5 was injected to remove any non-covalently bound proteins.
The affinity analyses of the interaction between 9-amino-acid predicted peptides and purified gp120 were performed using the BIAcore T200 (GE Healthcare), under conditions of 10 μl/min flow rate and 25° C. and using HBS-EP buffer (0.01 M HEPES pH 7.4, 0.15 M NaCl, 0.005% v/v Surfactant P20; GE Healthcare) as the running buffer. Prior to experiment, the 9-amino-acid peptides were diluted to 1 mg/ml with HBS-EP buffer. A 2-fold serial dilution of totally 8 concentrations was used to pass through the […]. The data were analysed using Microcal Origin version 7.5 (Microcal Software Limited).
In order to obtain quantitative measurements of binding reactions between predicted peptides and gp120, surface plasmon resonance (BIAcore) was used to measure the equilibrium dissociation constant KD of the predicted peptides and gp120. […] Since the KD to gp120 is relative to different analytes, purified protein HLA-A*0201 heavy chain was used as a reference control to measure the relative binding affinity of peptides to gp120. Purified gp120 and HLA-A*0201 were immobilised on chips, and the peptides were passed through both flow cells at a constant rate of 10 μl/min. […] The BIcore experiment acted as a second confirmation that the randomised peptide library had successfully captured peptides which bind to gp120 in a single round of selection, and that the sequence information coding the binding peptides was correctly preserved and sequenced.

HIV-1 IIIB = assay: HIV-1 inhibition assay (intracellular p24 in CD4+ cells of PBMC); type: cell-based; conditions: CXCR4 tropic virus
[2] = system: JRFL gp120 / recombinant CCR5; type: binding, HIV-1; conditions: 125 ng peptide

Row | Molecule | binding to gp120 on ELISA (absorbance) (HIV-1 JRFL gp120) | HIV-1 inhibition (in words) [1] | cross clade HIV-1 inhibitory activity [1] | affinity to gp120 (ranking) (purified gp120) | other results
1 | CC(C)C[C@H](NC(=O)[C@H](CC(C)C)NC(=O)[C@H](CC(N)=O)NC(=O)[C@H](CC(C)C)NC(=O)[C@H](CCCNC(=N)N)NC(=O)[C@H](CCCNC(=N)N)NC(=O)[C@H](CS)NC(=O)[C@H](Cc1c[nH]c2ccccc12)NC(=O)[C@@H](N)CC(C)C)C(=O)NCC(=O)NCC(=O)NCC(=O)NCC(=O)NCC(=O)NCC(=O)N[C@@H](CO)C(=O)NCC(=O)NCC(=O)N[C@@H](CO)C(=O)NCC(=O)N[C@@H](CCCCNC(=O)CCCC[C@@H]1SC[C@@H]2NC(=O)N[C@@H]21)C(=O)O [GP16] | significantly higher binding; also recorded: higher absorbance; also recorded: highest binding affinity | greatest inhibition | exhibited cross clade HIV-1 inhibitory activity | highest affinity | inhibition of HIV-1 BaL infection (HIV-1 BaL; 50 μM): less than 1%; inhibition of HIV-1 BaL infection (HIV-1 BaL; 100 μM): less than 1%; inhibition of HIV-1 BaL infection (HIV-1 BaL; 250 μM): 50%; reduction in absorbance of peptide binding to gp120 (gp120; gp120 blocked with any of the three antibodies (V3, VRC01, F105)): no reduction
2 | LLALSAYMV [GP11] | significantly higher binding; also recorded: higher absorbance | – | exhibited cross clade HIV-1 inhibitory activity | highest affinity | –
3 | LVLLSSASS [GP5] | – | – | – | highest affinity | –
4 | RRRNVPLIL (RRRNVPLIL-{GS linker-K(biotin)}; reading uncertain) [GP2] | significantly higher binding; also recorded: higher absorbance | – | – | – | –
5 | SSCSVRSSCRLYYSC [GP21] | did not show any binding | did not show any HIV-1 inhibition | – | – | –
6 | SYSFCPRRQ (also: GS linker and biotinylated lysine, end not given here) [GP3] | significantly higher binding; also recorded: higher absorbance | greatest inhibition | exhibited cross clade HIV-1 inhibitory activity | highest affinity | inhibition of HIV-1 BaL infection (HIV-1 BaL; 50 μM): no inhibitory effect; inhibition of HIV-1 BaL infection (HIV-1 BaL; 100 μM): 34.5%; inhibition of HIV-1 BaL infection (HIV-1 BaL; 250 μM): 54.7%; inhibition of replication (HIV-1 BaL; CCR5 tropic virus): exhibited inhibition; reduction in absorbance of peptide binding to gp120 (gp120; gp120 pre-blocked with V3 antibody): significant reduction; inhibition of replication (HIV-1 IIIB): no inhibition; reduction in absorbance (recombinant CCR5 binding to gp120) [2]: 65.8%
7 | enfuvirtide | – | – | – | – | viral inhibition ([1]; positive control, 50 μM): 91.1%
